From PMC5218480 (PLoS ONE, 2017) come the findings set out here.

The subject of this test is MV-4-11 cells. Kind of test: Gene expression microarray analysis (Affymetrix PrimeView) and GSEA. Particulars: MV-4-11 cells, 48 hours. The arrangement: RFU PODN (11730768_x_at) / Fold change /veh PODN (11730768_x_at) / RFU LINC00158 (11744669_a_at) / Fold change /veh LINC00158 (11744669_a_at) / RFU DUSP10 (11751237_a_at) / Fold change /veh DUSP10 (11751237_a_at) / RFU ID3 (11757404_x_at) / Fold change /veh ID3 (11757404_x_at) / RFU PLEKHG5 (11737974_s_at) / Fold change /veh PLEKHG5 (11737974_s_at) / RFU LRRC4B (11730491_at) / Fold change /veh LRRC4B (11730491_at) / RFU GIMAP4 (11747438_a_at) / Fold change /veh GIMAP4 (11747438_a_at) / RFU KRT8 (11758183_x_at) / Fold change /veh KRT8 (11758183_x_at) / RFU CNN1 (11734310_a_at) / Fold change /veh CNN1 (11734310_a_at) / RFU VPS37D (11726825_at) / Fold change /veh VPS37D (11726825_at) / RFU C10orf10 (11716522_x_at) / Fold change /veh C10orf10 (11716522_x_at) / RFU KIR2DL2 /// KIR2DL4 /// KIR2DL5A /// KIR2DL5B /// KIR2DS1 /// KIR2DS2 /// KIR2DS3 /// KIR2DS4 /// KIR3DL3 /// KIR3DL3 /// KIR3DS1 (11738374_at) / Fold change /veh KIR2DL2 /// KIR2DL4 /// KIR2DL5A /// KIR2DL5B /// KIR2DS1 /// KIR2DS2 /// KIR2DS3 /// KIR2DS4 /// KIR3DL3 /// KIR3DL3 /// KIR3DS1 (11738374_at) / RFU C1QL1 (11718748_at) / Fold change /veh C1QL1 (11718748_at) / RFU TMPRSS4 (11747572_a_at) / Fold change /veh TMPRSS4 (11747572_a_at) / RFU HAMP (11756126_x_at) / Fold change /veh HAMP (11756126_x_at) / RFU RNFT2 (11725882_a_at) / Fold change /veh RNFT2 (11725882_a_at) / RFU NR4A2 (11747474_a_at) / Fold change /veh NR4A2 (11747474_a_at) / RFU ABCC12 (11746883_a_at) / Fold change /veh ABCC12 (11746883_a_at) / RFU TMEM136 (11760407_x_at) / Fold change /veh TMEM136 (11760407_x_at) / RFU CLDN22 /// WWC2 (11732394_at) / Fold change /veh CLDN22 /// WWC2 (11732394_at) / RFU HLA-DPB1 (11760878_x_at) / Fold change /veh HLA-DPB1 (11760878_x_at) / RFU SPINT1 (11716480_a_at) / Fold change /veh SPINT1 (11716480_a_at) / RFU GAP43 (11754022_s_at) / Fold change /veh GAP43 (11754022_s_at) / RFU A4GNT (11735810_at) / Fold change /veh A4GNT (11735810_at) / RFU PRB3 (11715151_x_at) / Fold change /veh PRB3 (11715151_x_at) / RFU TUBB4B (11761932_at) / Fold change /veh TUBB4B (11761932_at) / RFU CAPN14 (11732068_a_at) / Fold change /veh CAPN14 (11732068_a_at) / RFU TMCC2 (11721928_a_at) / Fold change /veh TMCC2 (11721928_a_at) / RFU IRGQ (11745062_a_at) / Fold change /veh IRGQ (11745062_a_at) / RFU FAM174B (11720279_a_at) / Fold change /veh FAM174B (11720279_a_at) / RFU TMPRSS4 (11748680_a_at) / Fold change /veh TMPRSS4 (11748680_a_at) / RFU FAM212B (11763350_a_at) / Fold change /veh FAM212B (11763350_a_at) / RFU PLEKHG5 (11743358_a_at) / Fold change /veh PLEKHG5 (11743358_a_at) / RFU ZSCAN30 (11745921_a_at) / Fold change /veh ZSCAN30 (11745921_a_at) / RFU CMKLR1 (11741424_a_at) / Fold change /veh CMKLR1 (11741424_a_at) / RFU LOC101060620 /// MAPK8IP1 (11723275_at) / Fold change /veh LOC101060620 /// MAPK8IP1 (11723275_at) / RFU SPTSSB (11747773_x_at) / Fold change /veh SPTSSB (11747773_x_at) / RFU PRSS12 (11739890_at) / Fold change /veh PRSS12 (11739890_at) / RFU BIN1 (11741810_x_at) / Fold change /veh BIN1 (11741810_x_at) / RFU WNT11 (11732464_a_at) / Fold change /veh WNT11 (11732464_a_at) / RFU C10orf10 (11716521_a_at) / Fold change /veh C10orf10 (11716521_a_at) / RFU C5orf56 (11738089_at) / Fold change /veh C5orf56 (11738089_at) / RFU CYB561 (11721691_x_at) / Fold change /veh CYB561 (11721691_x_at) / RFU ANKRD19P (11752326_a_at) / Fold change /veh ANKRD19P (11752326_a_at) / RFU OR2T12 /// OR2T33 /// OR2T8 (11738714_s_at) / Fold change /veh OR2T12 /// OR2T33 /// OR2T8 (11738714_s_at) / RFU VCAN (11748164_a_at) / Fold change /veh VCAN (11748164_a_at) / RFU JSRP1 (11732532_at) / Fold change /veh JSRP1 (11732532_at) / RFU KRTAP10-11 (11738290_x_at) / Fold change /veh KRTAP10-11 (11738290_x_at) / RFU MYO3A (11730013_a_at) / Fold change /veh MYO3A (11730013_a_at) / RFU EBF3 (11725865_a_at) / Fold change /veh EBF3 (11725865_a_at) / RFU CAMK2N1 (11719241_x_at) / Fold change /veh CAMK2N1 (11719241_x_at) / RFU C5orf56 (11738088_a_at) / Fold change /veh C5orf56 (11738088_a_at) / RFU OLFML3 (11715873_a_at) / Fold change /veh OLFML3 (11715873_a_at) / RFU LOC100653217 /// NTM (11731650_a_at) / Fold change /veh LOC100653217 /// NTM (11731650_a_at) / RFU MAPK11 (11762145_a_at) / Fold change /veh MAPK11 (11762145_a_at) / RFU FIZ1 (11724087_x_at) / Fold change /veh FIZ1 (11724087_x_at) / RFU OASL (11726364_x_at) / Fold change /veh OASL (11726364_x_at) / RFU SOX15 (11748057_x_at) / Fold change /veh SOX15 (11748057_x_at) / RFU CD79A (11719716_a_at) / Fold change /veh CD79A (11719716_a_at) / RFU HIST1H1D (11736915_at) / Fold change /veh HIST1H1D (11736915_at) / RFU CASKIN2 (11723855_a_at) / Fold change /veh CASKIN2 (11723855_a_at) / RFU LOC730098 (11760151_x_at) / Fold change /veh LOC730098 (11760151_x_at) / RFU OR4N2 (11742367_at) / Fold change /veh OR4N2 (11742367_at) / RFU PRRT2 (11749266_a_at) / Fold change /veh PRRT2 (11749266_a_at) / RFU SNX32 (11753110_a_at) / Fold change /veh SNX32 (11753110_a_at) / RFU CDHR5 (11726645_a_at) / Fold change /veh CDHR5 (11726645_a_at) / RFU RCAN1 (11760418_a_at) / Fold change /veh RCAN1 (11760418_a_at) / RFU FAM167A (11723789_a_at) / Fold change /veh FAM167A (11723789_a_at) / RFU FAM26E (11764081_at) / Fold change /veh FAM26E (11764081_at) / RFU ISYNA1 (11749810_s_at) / Fold change /veh ISYNA1 (11749810_s_at) / RFU ACY1 (11761880_at) / Fold change /veh ACY1 (11761880_at) / RFU 11764098_at / Fold change /veh 11764098_at / RFU SAMD14 (11745864_x_at) / Fold change /veh SAMD14 (11745864_x_at) / RFU NPB (11741838_a_at) / Fold change /veh NPB (11741838_a_at) / RFU TMPRSS6 (11731388_a_at) / Fold change /veh TMPRSS6 (11731388_a_at) / RFU KRTAP10-2 (11738614_at) / Fold change /veh KRTAP10-2 (11738614_at) / RFU ARHGAP8 /// PRR5-ARHGAP8 (11727945_x_at) / Fold change /veh ARHGAP8 /// PRR5-ARHGAP8 (11727945_x_at) / RFU KRTAP5-7 /// NADSYN1 (11734609_at) / Fold change /veh KRTAP5-7 /// NADSYN1 (11734609_at) / RFU RASL12 (11751679_a_at) / Fold change /veh RASL12 (11751679_a_at) / RFU CDKN2B (11736163_a_at) / Fold change /veh CDKN2B (11736163_a_at) / RFU PRF1 (11729649_at) / Fold change /veh PRF1 (11729649_at) / RFU, ZNF638 /// ZNF638-IT1 / Fold change vs veh, ZNF638 /// ZNF638-IT1 / RFU, PANK3 / Fold change vs veh, PANK3 / RFU, SH3YL1 / Fold change vs veh, SH3YL1 / RFU, ZEB2 / Fold change vs veh, ZEB2 / RFU, NRIP1 / Fold change vs veh, NRIP1 / RFU, PTTG1IP / Fold change vs veh, PTTG1IP / RFU, CAPN2 / Fold change vs veh, CAPN2 / RFU, MED14 / Fold change vs veh, MED14 / RFU, SNORA58 / Fold change vs veh, SNORA58 / RFU, C1orf63 / Fold change vs veh, C1orf63 / RFU, LRRFIP1 / Fold change vs veh, LRRFIP1 / RFU, NDUFAF7 / Fold change vs veh, NDUFAF7 / RFU, SLC12A2 / Fold change vs veh, SLC12A2 / RFU, IBTK / Fold change vs veh, IBTK / RFU, ESF1 / Fold change vs veh, ESF1 / Fold change vs veh, TMEM50B / RFU, TAOK1 / Fold change vs veh, TAOK1 / RFU, ACBD3 / Fold change vs veh, ACBD3 / RFU, TMA16 / Fold change vs veh, TMA16 / RFU, RWDD3 / Fold change vs veh, RWDD3 / RFU, BCAT1 / Fold change vs veh, BCAT1 / RFU, EDEM3 / Fold change vs veh, EDEM3 / RFU, TMEM33 / Fold change vs veh, TMEM33 / RFU, WDR75 / Fold change vs veh, WDR75 / RFU, AHCTF1 / Fold change vs veh, AHCTF1 / RFU, TFRC / Fold change vs veh, TFRC / RFU, ZDHHC17 / Fold change vs veh, ZDHHC17 / RFU, NOM1 / Fold change vs veh, NOM1 / RFU, ARL8B / Fold change vs veh, ARL8B / RFU, ZBTB11 / Fold change vs veh, ZBTB11 / RFU, TAMM41 / Fold change vs veh, TAMM41 / RFU, KIAA1704 /// LOC100996395 / Fold change vs veh, KIAA1704 /// LOC100996395 / RFU, ING1 / Fold change vs veh, ING1 / RFU, TRMT61B / Fold change vs veh, TRMT61B / RFU, FUBP3 / Fold change vs veh, FUBP3 / RFU, TP53 / Fold change vs veh, TP53 / RFU, TNKS2 / Fold change vs veh, TNKS2 / RFU, ZFP14 / Fold change vs veh, ZFP14 / RFU, ACTR2 / Fold change vs veh, ACTR2 / RFU, PPP3R1 / Fold change vs veh, PPP3R1 / RFU, PIK3R1 / Fold change vs veh, PIK3R1 / RFU, HNRNPA1 / Fold change vs veh, HNRNPA1 / RFU, RNF170 / Fold change vs veh, RNF170 / RFU, ZNF28 / Fold change vs veh, ZNF28 / RFU, RNGTT / Fold change vs veh, RNGTT / RFU, OGT / Fold change vs veh, OGT / RFU, BRD1 / Fold change vs veh, BRD1 / RFU, MARS / Fold change vs veh, MARS / RFU, ZNF655 / Fold change vs veh, ZNF655 / RFU, FAHD1 / Fold change vs veh, FAHD1 / RFU, BDP1 / Fold change vs veh, BDP1 / RFU, LRRCC1 / Fold change vs veh, LRRCC1 / RFU, ARID1A / Fold change vs veh, ARID1A / RFU, ZNF146 / Fold change vs veh, ZNF146 / RFU, ZNF330 / Fold change vs veh, ZNF330 / RFU, GPN3 / Fold change vs veh, GPN3 / RFU, C9orf123 / Fold change vs veh, C9orf123 / RFU, N4BP2L2 / Fold change vs veh, N4BP2L2 / RFU, ARFIP1 / Fold change vs veh, ARFIP1 / RFU, FAM179B / Fold change vs veh, FAM179B / RFU, BCL10 / Fold change vs veh, BCL10 / RFU, UHRF1BP1L / Fold change vs veh, UHRF1BP1L / RFU, BET1 / Fold change vs veh, BET1 / RFU, CNOT2 / Fold change vs veh, CNOT2 / RFU, ZNF268 / Fold change vs veh, ZNF268 / Fold change vs veh, ZNF507 / RFU, DGCR2 / Fold change vs veh, DGCR2 / RFU, WDSUB1 / Fold change vs veh, WDSUB1 / Fold change vs veh, HSP90B1 /// MIR3652 / RFU, ADSS / Fold change vs veh, ADSS / RFU, GK / Fold change vs veh, GK / RFU, ZNF148 / Fold change vs veh, ZNF148 / RFU, TAF9 / Fold change vs veh, TAF9 / RFU, SLC1A5 / Fold change vs veh, SLC1A5 / RFU, SLMO2 / Fold change vs veh, SLMO2 / RFU, ABCC4 / Fold change vs veh, ABCC4 / RFU, LOC101060439 /// RAP1B / Fold change vs veh, LOC101060439 /// RAP1B / RFU, RFX7 / Fold change vs veh, RFX7 / RFU, GTPBP10 / Fold change vs veh, GTPBP10 / RFU, CNEP1R1 / Fold change vs veh, CNEP1R1 / RFU, BIVM-ERCC5 /// ERCC5 / Fold change vs veh, BIVM-ERCC5 /// ERCC5 / RFU, ILF3 / Fold change vs veh, ILF3 / RFU 11762660_at / Fold change /veh 11762660_at / RFU VCAN (11757783_s_at) / Fold change /veh VCAN (11757783_s_at) / RFU DDX43 (11728927_at) / Fold change /veh DDX43 (11728927_at) / RFU KRT8 (11758188_x_at) / Fold change /veh KRT8 (11758188_x_at) / RFU NKD1 (11759106_at) / Fold change /veh NKD1 (11759106_at) / RFU SRD5A1 (11742802_a_at) / Fold change /veh SRD5A1 (11742802_a_at) / RFU TPSAB1 /// TPSB2 (11721975_s_at) / Fold change /veh TPSAB1 /// TPSB2 (11721975_s_at) / RFU GSTM3 (11746129_a_at) / Fold change /veh GSTM3 (11746129_a_at) / RFU IL23R (11737362_x_at) / Fold change /veh IL23R (11737362_x_at) / RFU TMEM51 (11727254_a_at) / Fold change /veh TMEM51 (11727254_a_at) / RFU PIWIL2 (11732686_x_at) / Fold change /veh PIWIL2 (11732686_x_at) / RFU ORM1 (11744905_x_at) / Fold change /veh ORM1 (11744905_x_at) / RFU CCDC152 (11743942_at) / Fold change /veh CCDC152 (11743942_at) / RFU ECM1 (11717891_a_at) / Fold change /veh ECM1 (11717891_a_at) / RFU IL23R (11748794_a_at) / Fold change /veh IL23R (11748794_a_at) / RFU TNFAIP8L3 (11732012_x_at) / Fold change /veh TNFAIP8L3 (11732012_x_at) / RFU MBOAT4 (11741988_at) / Fold change /veh MBOAT4 (11741988_at) / RFU 11764193_at / Fold change /veh 11764193_at / RFU TMEM53 (11763286_at) / Fold change /veh TMEM53 (11763286_at) / RFU MAGEB2 (11727129_at) / Fold change /veh MAGEB2 (11727129_at) / RFU TMEM200A (11744735_a_at) / Fold change /veh TMEM200A (11744735_a_at) / RFU CCDC152 (11751479_a_at) / Fold change /veh CCDC152 (11751479_a_at) / RFU FAM211A (11726209_a_at) / Fold change /veh FAM211A (11726209_a_at) / RFU RGS16 (11746705_a_at) / Fold change /veh RGS16 (11746705_a_at) / RFU VCAN (11755009_s_at) / Fold change /veh VCAN (11755009_s_at) / RFU RHOB (11743442_s_at) / Fold change /veh RHOB (11743442_s_at) / RFU RGS16 (11720943_a_at) / Fold change /veh RGS16 (11720943_a_at) / RFU RGS16 (11720944_at) / Fold change /veh RGS16 (11720944_at) / RFU, VPS4B / Fold change vs veh, VPS4B / RFU, CREB1 / Fold change vs veh, CREB1 / RFU, DNAJC13 / Fold change vs veh, DNAJC13 / RFU, GNAQ / Fold change vs veh, GNAQ / RFU, CDK5R1 / Fold change vs veh, CDK5R1 / RFU, ZRANB3 / Fold change vs veh, ZRANB3 / RFU, CUL4A / Fold change vs veh, CUL4A / RFU, CCNY / Fold change vs veh, CCNY / RFU, UFL1 / Fold change vs veh, UFL1 / RFU, COG3 / Fold change vs veh, COG3 / RFU, DIAPH2 / Fold change vs veh, DIAPH2 / RFU, SKA2 / Fold change vs veh, SKA2 / RFU, AFF3 / Fold change vs veh, AFF3 / RFU, LMF1 / Fold change vs veh, LMF1 / RFU, IPO11 / Fold change vs veh, IPO11 / RFU, DFFB / Fold change vs veh, DFFB / RFU, FOXP1 / Fold change vs veh, FOXP1 / RFU, CARD8 / Fold change vs veh, CARD8 / RFU, STRN3 / Fold change vs veh, STRN3 / RFU, ADK / Fold change vs veh, ADK / RFU, RASSF2 / Fold change vs veh, RASSF2 / RFU, WIPF1 / Fold change vs veh, WIPF1 / RFU, LARP1B / Fold change vs veh, LARP1B / RFU, RASA1 / Fold change vs veh, RASA1 / RFU, RB1 / Fold change vs veh, RB1 / RFU, PPFIA1 / Fold change vs veh, PPFIA1 / RFU, MAT2A / Fold change vs veh, MAT2A / RFU, CCT5 / Fold change vs veh, CCT5 / RFU, WDR92 / Fold change vs veh, WDR92 / RFU, CUX1 / Fold change vs veh, CUX1 / RFU, TTC7A / Fold change vs veh, TTC7A / RFU, TMEM135 / Fold change vs veh, TMEM135 / RFU, DEPTOR / Fold change vs veh, DEPTOR / RFU, CPM / Fold change vs veh, CPM / RFU, DNAJB6 / Fold change vs veh, DNAJB6 / RFU, CACNA2D3 / Fold change vs veh, CACNA2D3 / RFU, DTX4 / Fold change vs veh, DTX4 / RFU, TFCP2 / Fold change vs veh, TFCP2 / RFU, GMCL1 /// GMCL1P1 / Fold change vs veh, GMCL1 /// GMCL1P1 / RFU, AEBP2 / Fold change vs veh, AEBP2 / RFU, SNHG1 /// SNORD22 /// SNORD25 /// SNORD26 /// SNORD27 /// SNORD28 /// SNORD29 /// SNORD31 / Fold change vs veh, SNHG1 /// SNORD22 /// SNORD25 /// SNORD26 /// SNORD27 /// SNORD28 /// SNORD29 /// SNORD31 / Fold change (Aza/veh), C12orf56 (ProbeSet 11735607_a_at) / Fold change (ACY-1035/veh), C12orf56 (ProbeSet 11735607_a_at) / Fold change (Aza/veh), FGFR1OP (ProbeSet 11751329_s_at) / Fold change (ACY-1035/veh), FGFR1OP (ProbeSet 11751329_s_at) / Fold change (Aza/veh), VPS36 (ProbeSet 11739960_a_at) / Fold change (ACY-1035/veh), VPS36 (ProbeSet 11739960_a_at) / RFU SYPL1 (11715823_x_at) / Fold change /veh SYPL1 (11715823_x_at) / RFU IGFBP7 (11715501_s_at) / Fold change /veh IGFBP7 (11715501_s_at) / RFU REEP3 (11722064_at) / Fold change /veh REEP3 (11722064_at) / RFU IGLL1 (11728026_x_at) / Fold change /veh IGLL1 (11728026_x_at): dose or concentration left out as unconfirmed. The test is classed as cell-based, human.

Turning to `Nc1ncn([C@@H]2O[C@H](CO)[C@@H](O)[C@H]2O)c(=O)n1` [azacitidine], the “Fold change /veh HIST1H1D (11736915_at)” value is listed as 1.16.
